Results reported in ChEMBL document CHEMBL1147418, “Rational design and synthesis of selective BACE-1 inhibitors” (Bioorg Med Chem Lett, 2004).

Key:
Beta-secretase 1 [1] = molecular target: T1, Beta-secretase 1 (Homo sapiens, UniProt P56817); test: Tested for inhibition of Beta-secretase 1 (BACE 1) expressed in insect cell using baculovirus
Cathepsin D = Cathepsin D (Homo sapiens, UniProt P07339); test: Compound was tested for inhibition of cathepsin D
Renin = molecular target: T2, Renin (Homo sapiens, UniProt P00797); test: Compound was tested for inhibition of human renin
T2 sequence (P00797 whole entry): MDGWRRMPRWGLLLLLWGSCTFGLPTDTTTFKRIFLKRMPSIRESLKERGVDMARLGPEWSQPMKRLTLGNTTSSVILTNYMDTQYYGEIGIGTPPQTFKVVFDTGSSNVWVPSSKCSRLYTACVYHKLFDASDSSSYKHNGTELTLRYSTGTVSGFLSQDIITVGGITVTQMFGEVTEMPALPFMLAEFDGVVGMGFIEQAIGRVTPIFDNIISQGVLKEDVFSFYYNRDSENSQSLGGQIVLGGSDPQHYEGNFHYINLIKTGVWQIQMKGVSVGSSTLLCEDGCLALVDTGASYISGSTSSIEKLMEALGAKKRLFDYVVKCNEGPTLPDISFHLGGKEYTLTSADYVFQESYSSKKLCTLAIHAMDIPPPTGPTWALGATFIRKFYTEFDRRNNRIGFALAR

Beta-secretase 1 [2] = molecular target: T1, Beta-secretase 1; test: Compound (>1 mM ) was tested for inhibition of Beta-secretase 1 (BACE 1) expressed in insect cell using baculovirus; Not inhibited

T1 sequence (P56817 whole entry): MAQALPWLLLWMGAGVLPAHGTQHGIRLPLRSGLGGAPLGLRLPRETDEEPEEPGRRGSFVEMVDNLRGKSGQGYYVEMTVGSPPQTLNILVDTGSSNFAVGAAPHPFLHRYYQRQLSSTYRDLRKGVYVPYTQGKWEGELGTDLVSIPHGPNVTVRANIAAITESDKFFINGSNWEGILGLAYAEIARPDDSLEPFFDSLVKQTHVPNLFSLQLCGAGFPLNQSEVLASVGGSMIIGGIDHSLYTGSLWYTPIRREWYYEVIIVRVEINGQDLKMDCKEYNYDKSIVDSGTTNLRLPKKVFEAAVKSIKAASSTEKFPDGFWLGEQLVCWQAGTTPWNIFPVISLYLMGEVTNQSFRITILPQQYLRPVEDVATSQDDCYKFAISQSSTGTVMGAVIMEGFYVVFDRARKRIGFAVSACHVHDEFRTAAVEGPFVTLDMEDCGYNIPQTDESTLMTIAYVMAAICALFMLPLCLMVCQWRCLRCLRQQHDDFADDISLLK
Sequence of Cathepsin D (P07339 65-162 limits assumed): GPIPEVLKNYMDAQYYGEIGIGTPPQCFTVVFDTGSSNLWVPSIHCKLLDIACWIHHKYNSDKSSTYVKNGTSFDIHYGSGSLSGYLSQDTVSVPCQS
Sequence of Cathepsin D (P07339 169-412 limits assumed): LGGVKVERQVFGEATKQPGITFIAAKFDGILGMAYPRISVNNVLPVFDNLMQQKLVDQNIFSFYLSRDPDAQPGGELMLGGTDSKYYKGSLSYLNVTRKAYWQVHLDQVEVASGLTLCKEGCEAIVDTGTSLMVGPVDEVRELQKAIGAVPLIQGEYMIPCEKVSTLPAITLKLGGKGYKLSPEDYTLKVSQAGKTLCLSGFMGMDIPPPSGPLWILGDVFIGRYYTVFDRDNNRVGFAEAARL

| SMILES | Ki (Beta-secretase 1 [1]) [µM] | Ki (Cathepsin D) [µM] | Ki (Renin) [µM] | Activity (Beta-secretase 1 [2]) |
| --- | --- | --- | --- | --- |
| CC(C)CC(=O)N[C@H](C(=O)N[C@H](C(=O)N[C@@H](CC(C)C)[C@@H](O)CC(=O)N[C@@H](C)C(=O)N[C@@H](CC(C)C)[C@@H](O)CC(=O)O)C(C)C)C(C)C | – | – | – | No inhibition |
| CC(=O)OCC[C@H](C[C@H](O)[C@H](Cc1ccccc1)NC(=O)C[C@H](NC(=O)CC(C)C)C(=O)O)C(=O)NCC(C)C | 2.7 | 2.2 | 1.9 | – |
| CC(C)CNC(=O)[C@H](CCC(=O)O)C[C@H](O)[C@H](Cc1ccccc1)NC(=O)C[C@H](NC(=O)CC(C)C)C(=O)O | 1.7 | 79.7 | 73.6 | – |

Further lines, results first:

| Ki (Beta-secretase 1 [1]) [µM] | Ki (Cathepsin D) [µM] | Ki (Renin) [µM] | Activity (Beta-secretase 1 [2]) | SMILES |
| --- | --- | --- | --- | --- |
| 1.9 | 12.5 | 10.9 | – | CC(C)CNC(=O)[C@H](CCO)C[C@H](O)[C@H](Cc1ccccc1)NC(=O)C[C@H](NC(=O)CC(C)C)C(=O)O |
| 69.5 | 28 | 24.4 | – | CCC[C@H](C[C@H](O)[C@H](Cc1ccccc1)NC(=O)C[C@H](NC(=O)CC(C)C)C(=O)O)C(=O)NCC(C)C |
